Measurements: ChEMBL document CHEMBL1201862, “PubChem BioAssay data set” (2004)
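How tested: cells in 96-well plates exposed to compound for 48 hours at five concentrations. At the GI50, growth is halved.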 Calls of active or inactive are those of the source. Cut-off read from the data, not from the text of the source: active = GI50 up to about 1.1 µM and inactive = higher.

Key:
Assay in all cases: growth of human tumour cells (NCI), 48 h
[1] = test system: SNB-19
[2] = test system: T47D
[3] = test system: HCC 2998
[4] = test system: CAKI-1
[5] = test system: MDA-N
[6] = test system: HL-60
[7] = test system: BT-549
[8] = test system: DU-145
[9] = test system: HCT-15
[10] = test system: OVCAR-8
[11] = test system: COLO 205
[12] = test system: KM12
[13] = test system: NCI/ADR-RES
[14] = test system: SK-MEL-2
[15] = test system: MCF7
[16] = test system: IGROV-1
[17] = test system: SF-268
[18] = test system: NCI-H522
[19] = test system: Malme-3M
[20] = test system: SNB-75

`Cc1ccc(NC(=O)C(=O)CC(=O)c2sc(Nc3c(C)cccc3C)nc2C)cc1C` was tested, and the GI50 [1] was > 100 µM (inactive), the GI50 [2] was > 100 µM (inactive) and the GI50 [3] was > 100 µM (inactive). For the same compound, the GI50 [4] was > 100 µM (inactive), the GI50 [5] was > 100 µM (inactive) and the GI50 [6] was 55.2 µM (inactive). The GI50 [7] was > 100 µM (inactive), the GI50 [8] was > 100 µM (inactive) and the GI50 [9] was > 100 µM. The GI50 [10] was > 100 µM (inactive), the GI50 [11] was > 100 µM (inactive) and the GI50 [12] was > 100 µM (inactive). For the same compound, the GI50 [13] was > 100 µM (inactive), the GI50 [14] was > 100 µM (inactive) and the GI50 [15] was > 100 µM (inactive). The GI50 [16] was > 100 µM (inactive), the GI50 [17] was > 100 µM (inactive) and the GI50 [18] was 71.4 µM (inactive).

For `COc1c(CC=C(C)C)c(O)c(C(CC(C)C)c2c(O)c(C(C)=O)c(O)c3c2OC(C(C)(C)O)C3)c(O)c1C(C)=O` (centres undefined) [ACROFOLIONE A], the GI50 [1] was 7.33 µM (inactive), the GI50 [2] was 3.21 µM (inactive) and the GI50 [3] was 4.46 µM (inactive). For the same compound, the GI50 [4] was 3.59 µM (inactive), the GI50 [5] was 4.29 µM (inactive) and the GI50 [6] was 1.97 µM (inactive). The GI50 [7] was 3.27 µM (inactive), the GI50 [8] was 4.71 µM (inactive) and the GI50 [9] was 3.86 µM. For the same compound, the GI50 [10] was 4.12 µM (inactive), the GI50 [11] was 4.46 µM (inactive) and the GI50 [19] was 3.81 µM (inactive). The GI50 [13] was 3.82 µM (inactive), the GI50 [15] was 4.26 µM (inactive) and the GI50 [16] was 3.65 µM (inactive). For the same compound, the GI50 [17] was 5.33 µM (inactive) and the GI50 [18] was 3.39 µM (inactive).

In the case of `O=C(CN1CCCC1)Nc1ccc2sc3ccccc3c(=O)c2n1`, the GI50 [1] is reported as 32.7 µM (inactive), the GI50 [2] is reported as 30.1 µM (inactive) and the GI50 [3] is reported as 13.9 µM (inactive). For the same compound, the GI50 [4] was 18 µM (inactive), the GI50 [5] was 20.8 µM (inactive) and the GI50 [6] was > 10 µM (inactive). The GI50 [7] was 25.3 µM (inactive), the GI50 [8] was 25.9 µM (inactive) and the GI50 [9] was 23.2 µM. The GI50 [20] was 19.7 µM (inactive), the GI50 [10] was 16.8 µM (inactive) and the GI50 [11] was 14 µM (inactive). The GI50 [12] was 19.5 µM (inactive), the GI50 [13] was 15.5 µM (inactive) and the GI50 [14] was 21.1 µM (inactive). For the same compound, the GI50 [15] was 27.2 µM (inactive), the GI50 [16] was 23.2 µM (inactive) and the GI50 [17] was 24.7 µM (inactive). For the same compound, the GI50 [18] was 11.2 µM (inactive).

In the case of `CN(Cc1cnc2nc(N)nc(N)c2n1)c1ccc(C(=O)NCS(=O)(=O)O)cc1`, the GI50 [1] is reported as > 100 µM (inactive), the GI50 [2] is reported as > 100 µM (inactive) and the GI50 [3] is reported as > 100 µM (inactive). The GI50 [5] was 63.1 µM (inactive), the GI50 [7] was > 100 µM (inactive) and the GI50 [8] was 25.7 µM (inactive). For the same compound, the GI50 [9] was > 100 µM, the GI50 [20] was 29.4 µM (inactive) and the GI50 [10] was > 100 µM (inactive). The GI50 [11] was > 100 µM (inactive), the GI50 [19] was > 100 µM (inactive) and the GI50 [12] was 60.1 µM (inactive). For the same compound, the GI50 [13] was 34.3 µM (inactive), the GI50 [14] was > 100 µM (inactive) and the GI50 [15] was 57.9 µM (inactive). For the same compound, the GI50 [16] was > 100 µM (inactive), the GI50 [17] was 33.3 µM (inactive) and the GI50 [18] was > 100 µM (inactive).

`CN1CC2CC(C1)c1cccc(=O)n1C2` (centres undefined) was tested, and the GI50 [1] was > 100 µM (inactive), the GI50 [2] was > 100 µM (inactive) and the GI50 [3] was 0.253 µM (active). The GI50 [4] was > 100 µM (inactive), the GI50 [5] was > 100 µM (inactive) and the GI50 [7] was > 100 µM (inactive). The GI50 [8] was > 100 µM (inactive), the GI50 [9] was > 100 µM and the GI50 [20] was > 100 µM (inactive). For the same compound, the GI50 [10] was > 100 µM (inactive), the GI50 [11] was > 100 µM (inactive) and the GI50 [19] was > 100 µM (inactive). For the same compound, the GI50 [12] was > 100 µM (inactive), the GI50 [13] was > 100 µM (inactive) and the GI50 [14] was > 100 µM (inactive). The GI50 [15] was > 100 µM (inactive), the GI50 [16] was > 100 µM (inactive) and the GI50 [17] was > 100 µM (inactive). For the same compound, the GI50 [18] was > 100 µM (inactive).

`O=c1c2c([N+](=O)[O-])cccc2nc2[nH]c3ccccc3n12` was tested, and the GI50 [1] was 30.9 µM (inactive), the GI50 [2] was 15 µM (inactive) and the GI50 [3] was 19.3 µM (inactive). The GI50 [4] was 14.6 µM (inactive), the GI50 [5] was > 75 µM (inactive) and the GI50 [6] was > 75 µM (inactive). For the same compound, the GI50 [7] was 20.5 µM (inactive), the GI50 [8] was 34 µM (inactive) and the GI50 [9] was 53.6 µM. The GI50 [10] was 14.5 µM (inactive), the GI50 [11] was 40.7 µM (inactive) and the GI50 [19] was 46 µM (inactive). For the same compound, the GI50 [12] was 32.4 µM (inactive), the GI50 [13] was 26.4 µM (inactive) and the GI50 [14] was 14.4 µM (inactive). The GI50 [15] was 20.4 µM (inactive), the GI50 [16] was 11.9 µM (inactive) and the GI50 [17] was 18.7 µM (inactive).

With `CCOc1ccccc1N1CSc2nnc(-c3ccccc3)n2C1` the GI50 [2] was > 100 µM (inactive), the GI50 [3] was > 100 µM (inactive) and the GI50 [4] was > 100 µM (inactive). For the same compound, the GI50 [5] was > 100 µM (inactive), the GI50 [7] was > 100 µM (inactive) and the GI50 [8] was > 100 µM (inactive). The GI50 [9] was > 100 µM, the GI50 [10] was > 100 µM (inactive) and the GI50 [11] was 68.1 µM (inactive). For the same compound, the GI50 [19] was > 100 µM (inactive), the GI50 [12] was > 100 µM (inactive) and the GI50 [13] was > 100 µM (inactive). For the same compound, the GI50 [14] was > 100 µM (inactive), the GI50 [15] was 97.3 µM (inactive) and the GI50 [16] was > 100 µM (inactive). For the same compound, the GI50 [17] was > 100 µM (inactive) and the GI50 [18] was > 100 µM (inactive).

In the case of `CN(C(=O)CC(=O)CP(=O)(c1ccccc1)c1ccccc1)c1ccccc1`, the GI50 [1] is reported as > 100 µM (inactive), the GI50 [2] is reported as > 100 µM (inactive) and the GI50 [3] is reported as > 100 µM (inactive). The GI50 [4] was > 100 µM (inactive), the GI50 [5] was > 100 µM (inactive) and the GI50 [6] was > 100 µM (inactive). The GI50 [7] was > 100 µM (inactive), the GI50 [8] was > 100 µM (inactive) and the GI50 [9] was > 100 µM. The GI50 [20] was > 100 µM (inactive), the GI50 [10] was > 100 µM (inactive) and the GI50 [11] was > 100 µM (inactive). For the same compound, the GI50 [12] was > 100 µM (inactive), the GI50 [13] was > 100 µM (inactive) and the GI50 [15] was > 100 µM (inactive). The GI50 [16] was > 100 µM (inactive), the GI50 [17] was > 100 µM (inactive) and the GI50 [18] was > 100 µM (inactive).
